Test results: patent US20240390490A1, “PHARMACEUTICAL COMPOSITIONS FOR THE TREATMENT OF CANCERS” (Rutgers, The State University of New Jersey, priority 2021, published 2024)

Tests used:
[1] = system: MDA-MB-231-cell-derived xenografts; assay: Survival study of nude rats inoculated with MDA-MB-231 cells; type: in vivo, rat; details: Kaplan-Meier; control animals about 28 days
Method: For the following study and survival study, MDA-MB 231 cells (ATCC) were grown until about 90% confluence just 1 day before injection. On the day of injection, after checking cell viability with trypan blue, MDA-MB 231 cells were diluted in PBS at a final concentration of 1×10^7 cells/rat in 200-μl of PBS-50% Matrigel (BD Biosciences, San Jose, CA) mixture and injected subcutaneously (SC) into the right flank of the rats. […] Tumor shrinkage/growth was measured in animals daily and animal weights were measured every other day. […] Three dimensions of tumor were measured using electronic calipers, and tumor volumes were calculated by the formula L×W^2/2. The mean±SEM of tumor volume was calculated weekly for each experimental group, and the data are expressed as mean absolute tumor volume. After the animals were sacrificed, the subcutaneous tumors were excised intact from the rats to determine the tumor weight in grams and photographed to visualize differences in tumor morphology and compare size. A portion of the excised tumors was snap-frozen by immersion in liquid nitrogen and stored at −80° C. until further use.
The animals were treated with the same drug treatment regimens and euthanized as described previously. […] At the endpoint (prior to the onset of death), the animals were euthanized, and the survival curves were plotted in a Kaplan-Meier survival curve.

[2] = system: plasma cytokines and chemokines; assay: Plasma cytokines multiplex immunoassay; type: in vivo, rat
Excerpt: After the end of the drug treatment period, plasma samples from control and drug-treated rats were processed and used for cytokine detection. Cytokines were quantified in plasma samples using the ProcartaPlex multiplex immunoassay technology. These immunoassays are bead-based assays for protein quantification based on the principles of a sandwich Elisa with the use of Luminex® xMAP® (multianalyte profiling) technology. The Rat Cytokine & Chemokine 22-plex ProcartaPlex Panel is a preconfigured multiplex immunoassay kit that measures 22 protein targets using Luminex xMAP technology. Plasma samples were diluted with universal assay buffer (1:1) and added into a 96-well flat bottom plate to the magnetic beads. The plate was sealed and covered before incubation of 2 hours at room temperature with 500 rpm shaking. After inserting the plate into the handheld magnetic plate washer, the plate was washed 3 times using a specific wash buffer. 25 μL of detection antibody mixture was to the plate and incubated it for 30 minutes at room temperature at 500 rpm. The plate was washed 3 times. Then 50 μL of SAPE solution were added to the plate before a novel 30-minute incubation at room temperature at 500 rpm. The plate was washed 3 times. Finally, 120 μL of reading buffer were add to the plate and incubated for 5 minutes at room temperature at 500 rpm before reading and analyzing with the Luminex™ instrument (MAGPIX® xPONENT®, R&D System, ThermoFisher). Median fluorescence index (MFI) was calculated and presented.

[3] = system: NK cells, monocytes and macrophages in PBMC and spleen; assay: Flow cytometry of immune cells in PBMC and spleen of xenografted rats; type: in vivo, rat; details: for NK cell numbers in PBMC and spleen: CD161a+ NK cells, flow cytometry
Method: Peripheral blood mononuclear cells (PBMC) from control and drug-treated rats were isolated from freshly obtained EDTA whole blood by density gradient purification (Lymphoprep™, Stemcell Technologies™, Vancouver, BC, Canada) using 15 mL SepMate™ tubes (Stemcell Technologies™) as per the manufacture's protocol. The pelleted cells (PBMC) were counted in a hemocytometer and assayed for viability by the trypan blue dye exclusion method. PBMC cell pellets from 3 animals in each group were pooled, washed three times with PBS, and finally resuspended in 2 ml RPMI medium containing 10% heat-inactivated FBS (HI-FBS) and used for NK cell cytotoxicity. Aliquots of PBMC were frozen down at −80° C. by resuspending cells in freezing media containing HI-FBS and 10% DMSO in aliquots of 5-10×10^6 cells/mL using Nalgene Mr. Frosty Cryo 1° C. freezing containers (Thermo Fisher Scientific) before storage in liquid nitrogen. For flow cytometric analysis, frozen PBMC was thawed and resuspended in RPMI-1640 and was evaluated for viability by trypan blue, and all were […], then washed with PBS before starting flow cytometer experiments.
Tumor-infiltrating immune cells were collected from MDA-MB-231 cell xenograft tumors to examine and compare the immune cell population among control and drug-treated animals. Briefly, single-cell suspensions of tumor tissue were achieved by mincing the tissue with a scalpel blade using a crisscross method, ground with 1-ml of ACK lysing buffer to remove red blood cells. The cell suspensions were filtered through a 70-micron sieve and then washed with PBS. Cells from the tumor were collected and dispersed with 100 μl of PBS and stained by the addition of fluorescence-conjugated antibodies. For flow cytometry experiments, single-cell suspension derived from tumors, PBMC, and splenocytes were used to characterize the immune cell population. Fluorophore-conjugated antibodies were used to detect surface markers of specific cell types and markers are as follows: for NK cells (CD161a (10/78)), tissue macrophage (RT1B (OX-6)), dendritic cells (CD103 (OX-62)), peripheral monocytes (CD11b (ED8)), B cells (CD45RA (OX-33)), and DAPI (Sigma) was used to exclude dead cells.
Immune cells from the tumor, PBMC, and splenocyte samples were examined by following the gating strategy as described below. First, side scatter area (SSC-A) versus forward scatter area (FSC-A) were used to exclude cellular debris, then forward scatter height (FSC-H) versus FSC-A were used to select single cells. […] Additional negative controls (isotype control and fluorescence minus one (FMO)) were also used to determine any non-specific binding in the present study. The data collected from each sample were exported and analyzed using FlowJo™ version 10.7.

MDA-MB-231 cells = assay: Clonogenic (colony formation) assay; type: cell-based, human; details: 100 μM, 14 days
Method: The clonogenic assay was performed as previously described (25). Briefly, cells were suspended in culture media and were seeded into 6-well tissue culture plates at a density of 1,000 cells/well, allowed to adhere overnight, and treated with vehicle alone or a 100 μM concentration of beta-adrenergic and opioidergic drugs alone or in combination. Fresh medium and drugs were changed every 3 or 4 days for 14 days. At the end of the experiment, the cell colonies were stained with 0.5% crystal violet, subjected to image acquisition, and quantified in Adobe Photoshop (Adobe Systems, San Jose, CA). The crystal violet-stained cell colonies were extracted with 10% acetic acid and used for optical density (OD) measurements for determination of colony growth. Drug effects on these cells were determined in duplicate wells in three independent experiments.

Compound | mean life span (survival) [1] [days] | IFN-γ [2] | chemokines RANTES and MCP-1 [2] | inflammatory cytokines and chemokines G-CSF/CSF-3, IL-1 alpha, IL-10, IL-6, IL-5, Gro-α, TNF-α, MCP-3, and IL-17A [2] | NK cell numbers in PBMC and spleen [3] | macrophage numbers in spleen ([3]; RT1B+ macrophages) | colony formation (MDA-MB-231 cells)
CC(C)NCC(O)COc1cccc2ccccc12 (stereo not shown) [PRO, propranolol] | 45 | elevated | inhibited | inhibited | increased | reduced | moderate inhibition
O=C1CC[C@@]2(O)[C@H]3Cc4ccc(O)c5c4[C@@]2(CCN3CC2CC2)[C@H]1O5 [NTX, 17-(cyclopropylmethyl)-4,5α-epoxy-3,14-dihydroxymorphinan-6-one] | 45 | elevated | inhibited | – | increased | – | moderate inhibition
CC1(C)SSC(C)(C)[C@@H](NC(=O)[C@@H](N)Cc2ccc(O)cc2)C(=O)NCC(=O)N[C@@H](Cc2ccccc2)C(=O)N[C@H]1C(=O)O [DPDPE, (D-Pen^2, D-Pen^5)-enkephalin] | 40 | – | inhibited | – | increased | – | moderate inhibition
